Assay results as given in ChEMBL document CHEMBL5226392, “Anti-inflammatory Quinoline Alkaloids from the Roots of Waltheria indica” (J Nat Prod, 2023).
The source made the active and inactive calls. No cut-off for these calls is given here.

Columns and labels:
[1] = system: RAW264.7; experiment: Inhibition of NO production in LPS-stimulated mouse RAW264.7 cells at 50 uM preincubated for 15 mins followed by LPS stimulation and measured after 20 hrs by Griess reagent based assay relative to control; format: functional; conditions: RAW264.7, 20.25 h, time 1215 min
[2] = Cytotoxicity against LPS-stimulated mouse RAW264.7 cells assessed as cell survival at 50 uM preincubated for 15 mins followed by LPS stimulation and measured after 20 hrs by CCK-8 assay relative to control; format: toxicity, cell-based; conditions: LPS-stimulated RAW264.7 cells, time 1215 min, read-out: Activity
[3] = Antiinflammatory activity in human 293/NFkB-Luc cells assessed as inhibition of TNF-alpha induced NFkaapaB activity at 50 uM preincubated for 15 mins followed by TNF-alpha induction and measured after 6 hrs by luminescence based assay relative to control; format: functional; conditions: 6.25 h, time 375 min
[4] = Cytotoxicity against TNF-alpha induced human 293/NFkB-Luc cells assessed as increase in cell survival at 50 uM preincubated for 15 mins followed by TNF-alpha induction and measured after 6 hrs by MTT assay relative to control; format: toxicity, cell-based; conditions: TNF-alpha induced 293/NFkB-Luc cells, time 375 min, read-out: Activity
[5] = system: RAW264.7; experiment: Inhibition of NO production in LPS-stimulated mouse RAW264.7 cells preincubated for 15 mins followed by LPS stimulation and measured after 20 hrs by Griess reagent based assay; format: functional, cell-based
[6] = Antiinflammatory activity in human 293/NFkB-Luc cells assessed as inhibition of TNF-alpha induced NFkaapaB activity preincubated for 15 mins followed by TNF-alpha induction and measured after 6 hrs by luminescence based assay; format: functional, cell-based
[7] = Cytotoxicity against LPS-stimulated mouse RAW264.7 cells assessed as cell growth inhibition preincubated for 15 mins followed by LPS stimulation and measured after 20 hrs by CCK-8 assay; format: toxicity, cell-based; conditions: LPS-stimulated RAW264.7 cells
[8] = system: RAW264.7; experiment: Antiinflammatory activity in mouse RAW264.7 cells assessed as inhibition of LPS-induced iNOS protein expression at 30 uM preincubated for 15 mins followed by LPS stimulation and measured after 24 hrs by Western blot analysis; format: functional, cell-based; conditions: time 1215.0 min

Row | Structure (SMILES) | inhibition at 50 µM [1] [%] | viability at 20 h, 50 µM [2] [%] | inhibition at 50 µM [3] [%] | viability at 6 h, 50 µM [4] [%] | IC50 [5] [µM] | IC50 [6] [µM] | IC50 at 20 h [7] [µM] | Activity [8]
1 | COc1c(C)[nH]c2c(OC)ccc(C(=O)CCCCc3ccccc3)c2c1=O | < 50 | 82.8 | < 50 | 76.8 | – | – | – | –
2 | CCCCCCC[C@H](O)c1ccc(OC)c2[nH]c(C)c(OC)c(=O)c12 | 91.7 | 64.7 | < 50 | 75.6 | 25.8 | – | – | –
3 | CCCCCCCCc1ccc(O)c2[nH]c(C)c(OC)c(=O)c12 | < 50 | 70.2 | < 50 | 83.6 | – | – | – | –
4 | COc1c(C)[nH]c2c(c1=O)[C@H](CCCCCc1ccccc1)CCC2 | 99.1 | 61 | 81.6 | 91.8 | 12.8 | 10.1 | – | –
5 | CCCCCCCC[C@H]1CC[C@@H](OC)c2[nH]c(C)c(OC)c(=O)c21 | 60.3 | 51.4 | < 50 | 90.3 | 42.9 | – | – | –
6 | COc1ccc(OC)c([C@@]2(O)c3ccc4[nH]c(C)c(OC)c(=O)c4c3[C@@H]3CC[C@H]2O3)c1 | < 50 | 100 | < 50 | 74.5 | – | – | – | –
7 | COc1c(C)[nH]c2c(OC)ccc(CCCCCCC(C)=O)c2c1=O | 63.8 | 86.5 | < 50 | 75.8 | 35.6 | – | – | –
8 | COc1c(C)[nH]c2c(c1=O)[C@@H](CCCCCc1ccccc1)CCC2=O | 59.7 | 67.5 | < 50 | 88.4 | 40.7 | – | – | –
9 | COc1c(C)[nH]c2cccc(CCCCCc3ccccc3)c2c1=O | 97.9 | < 50 | 77.5 | 76.7 | 11.4 | 10.2 | 33.3 | –
10 | COc1c(C)[nH]c2c(O)ccc(CCCCCc3ccccc3)c2c1=O | < 50 | 59.3 | < 50 | 83.5 | – | – | – | –
11 | COc1c(CO)[nH]c2c(c1=O)[C@@H](CCCCCc1ccccc1)CCC2=O | 79.1 | 50.8 | 71.1 | 100 | 31 | 11.9 | – | –
12 | CNC(=N)NCCC[C@H](N)C(=O)O | – | – | – | – | 22.7 | – | – | –
13 | CCCCCCCC(=O)c1ccc(OC)c2[nH]c(C)c(OC)c(=O)c12 | < 50 | 69.9 | < 50 | 86.7 | – | – | – | –
14 | CCCCCCCC[C@H]1CCCc2[nH]c(C)c(OC)c(=O)c21 | 99.9 | 67.6 | < 50 | 90.8 | 20.8 | – | – | –
15 | COc1c(C)n(OC)c2c(c1=O)[C@@H](CCCCCc1ccccc1)CCC2 | 99.7 | < 50 | 88.6 | 89 | 11 | 12.1 | 32.2 | –
16 | COc1c(C)n(OC)c2c(c1=O)[C@@H](CCCCCc1ccc(O)cc1)CCC2 | 94.5 | < 50 | 85.4 | 85.3 | 18.8 | 10.3 | 25.9 | –
17 | CC[C@@H](C)[C@@H]1NC(=O)[C@@H](NC(=O)[C@H](Cc2ccccc2)N(C)C)[C@@H](c2ccccc2)Oc2ccc(cc2)/C=C\NC1=O | < 50 | 94.8 | < 50 | 86.4 | – | – | – | –
18 | CCCCCCC[C@@H](O)c1ccc(OC)c2[nH]c(C)c(OC)c(=O)c12 | 86.5 | 84.9 | < 50 | 72.6 | 25.8 | – | – | –
19 | CCCCCCCC[C@H]1CCC(=O)c2[nH]c(CO)c(OC)c(=O)c21 | 89.9 | 50.9 | < 50 | 93.1 | 25.4 | – | – | –
20 | COc1ccccc1[C@@H]1c2ccc3[nH]c(C)c(OC)c(=O)c3c2[C@@H]2CC[C@H]1O2 | 56.3 | 100 | 84.5 | 79.6 | 38.8 | 7.2 | – | –
21 | COc1c(C)[nH]c2c(c1=O)[C@@H](CCCCCc1ccc(O)cc1)CCC2=O | < 50 | 89.3 | < 50 | 80.5 | – | – | – | –
22 | CC[C@H](C)[C@@H]1NC(=O)[C@H](NC(=O)/C=C/c2ccccc2)[C@H](c2ccccc2)Oc2ccc(cc2)/C=C\NC1=O | 58.5 | 100 | < 50 | 100 | 43 | – | – | –
23 | COc1c(C)[nH]c2c(c1=O)[C@@H](CCCCCc1ccccc1)CC[C@H]2OC | < 50 | 57.2 | < 50 | 69.9 | – | – | – | –
24 | COc1c(C)[nH]c2c(c1=O)[C@@H](CCCCC(=O)c1ccccc1)CCC2=O | < 50 | 74.5 | < 50 | 82.2 | – | – | – | –
25 | O=C1N/C=C\c2ccc(cc2)O[C@@H](c2ccccc2)[C@H](NC(=O)[C@@H]2CCCN2C(=O)/C=C/c2ccccc2)C(=O)N[C@H]1Cc1ccccc1 | 63.7 | 100 | < 50 | 76.6 | 32 | – | – | –
26 | COc1c(C)[nH]c2ccc3c(c2c1=O)[C@@H]1CCC[C@@]3(c2ccccc2)O1 | 58.7 | 100 | 78 | 89 | 35.7 | 7.1 | – | –
27 | COc1ccccc1[C@]1(O)c2ccc3[nH]c(C)c(OC)c(=O)c3c2[C@@H]2CC[C@H]1O2 | < 50 | 100 | < 50 | 86.7 | – | – | – | –
28 | COc1c(C)n(OC)c2c(c1=O)[C@@H](CCCCC(=O)c1ccccc1)CCC2 | < 50 | 73.2 | 97.9 | 82.7 | – | 8.9 | – | –
29 | CCCCCCCC[C@H]1CCC(=O)c2[nH]c(C)c(OC)c(=O)c21 | 97.4 | 63.5 | < 50 | 85.8 | 16.1 | – | – | Active
30 | Cc1ccc(S(=O)(=O)/C=C/C#N)cc1 | – | – | – | – | – | 9.7 | – | –
